pIC50: −log10 of the molar value.
Experiments:
HsPDIA3/ERp57 = target: T1, HsPDIA3/ERp57 (Homo sapiens, UniProt P30101); assay: biochemical
T1 construct: gene PDIA3

LmPDI = target: T2, LmPDI (Leishmania major, UniProt Q8I8E1); assay: fluorimetric di-eosin-GSSG disulfide reductase assay, […] protein; type: biochemical
T2 construct: gene pdi; recombinant, N-terminal cleavable His-FLAG tag

SmERp60 = target: T3, SmERp60 (Schistosoma mansoni, UniProt P38658); assay: as above; type: biochemical
T3 construct: recombinant, GST tag cleaved
T3 sequence (P38658 15-484): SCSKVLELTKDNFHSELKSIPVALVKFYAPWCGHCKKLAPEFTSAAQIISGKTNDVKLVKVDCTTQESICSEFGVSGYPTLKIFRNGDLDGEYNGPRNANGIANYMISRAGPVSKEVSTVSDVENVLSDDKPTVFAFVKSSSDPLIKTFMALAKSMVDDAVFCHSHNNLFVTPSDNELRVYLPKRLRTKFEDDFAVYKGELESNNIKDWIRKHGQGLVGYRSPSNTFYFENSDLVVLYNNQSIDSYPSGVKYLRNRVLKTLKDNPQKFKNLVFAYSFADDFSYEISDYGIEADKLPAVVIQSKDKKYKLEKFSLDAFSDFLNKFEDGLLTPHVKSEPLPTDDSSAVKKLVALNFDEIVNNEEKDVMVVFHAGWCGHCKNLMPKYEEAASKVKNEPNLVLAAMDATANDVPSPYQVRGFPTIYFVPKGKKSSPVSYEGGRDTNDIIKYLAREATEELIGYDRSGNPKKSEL

T1 sequence (P30101 25-505): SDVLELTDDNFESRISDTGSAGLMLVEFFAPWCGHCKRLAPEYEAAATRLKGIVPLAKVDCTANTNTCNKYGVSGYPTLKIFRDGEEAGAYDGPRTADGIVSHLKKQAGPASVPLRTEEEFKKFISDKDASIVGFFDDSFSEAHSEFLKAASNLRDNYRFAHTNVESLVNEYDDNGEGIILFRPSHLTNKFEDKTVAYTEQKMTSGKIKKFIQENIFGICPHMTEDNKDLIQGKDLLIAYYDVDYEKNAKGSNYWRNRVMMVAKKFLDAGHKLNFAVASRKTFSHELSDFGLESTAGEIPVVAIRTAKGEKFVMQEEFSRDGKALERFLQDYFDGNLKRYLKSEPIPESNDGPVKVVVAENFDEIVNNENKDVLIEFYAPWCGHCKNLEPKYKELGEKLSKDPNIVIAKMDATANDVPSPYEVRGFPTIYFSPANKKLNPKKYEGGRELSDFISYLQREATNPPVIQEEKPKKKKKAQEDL
T2 sequence (Q8I8E1 entry or part of it): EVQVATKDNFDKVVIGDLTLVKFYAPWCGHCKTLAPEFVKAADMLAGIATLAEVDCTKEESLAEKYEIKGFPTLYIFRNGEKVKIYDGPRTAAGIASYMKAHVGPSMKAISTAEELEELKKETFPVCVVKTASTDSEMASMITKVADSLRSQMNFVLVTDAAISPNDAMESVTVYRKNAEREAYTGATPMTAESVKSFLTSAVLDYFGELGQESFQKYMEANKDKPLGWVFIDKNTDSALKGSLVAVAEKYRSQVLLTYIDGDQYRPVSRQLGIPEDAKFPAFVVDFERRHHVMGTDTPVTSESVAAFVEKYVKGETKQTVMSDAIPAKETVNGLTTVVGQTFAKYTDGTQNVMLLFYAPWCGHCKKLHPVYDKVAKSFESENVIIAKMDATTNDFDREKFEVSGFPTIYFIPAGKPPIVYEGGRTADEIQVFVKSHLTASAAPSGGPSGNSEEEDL

Row | Structure (SMILES) | pIC50 (HsPDIA3/ERp57) | pIC50 (LmPDI) | pIC50 (SmERp60)
1 | O=C1O[C@H]2[C@@H]3OC(=O)c4cc(O)c(O)c(O)c4-c4c(O)c(O)c5oc(=O)c6c(c(O)c(O)c7oc(=O)c4c5c76)-c4c(cc(O)c(O)c4O)C(=O)OC[C@H]3OC(O)[C@@H]2OC(=O)c2cc(O)c(O)c(O)c2-c2c1cc(O)c(O)c2O (mixture of isomers) [punicalagin] | 6.30 | 5.14 | 
2 | COc1cc([C@H]2Oc3cc([C@H]4Oc5cc(O)cc(O)c5C(=O)[C@@H]4O)ccc3O[C@@H]2CO)ccc1O [silibinin A] |  |  | 6.12

— paper PMC6606611, “A comparative analysis of secreted protein disulfide isomerases from the tropical co-endemic parasites Schistosoma mansoni and Leishmania major” (Scientific Reports, 2019)
